Results published in ChEMBL document CHEMBL1201862, “PubChem BioAssay data set” (2004).
Active and inactive are the calls of the source.

Key:
[1] = biological target: ATP-dependent molecular chaperone HSP82 (Candida albicans (strain WO-1) (Yeast), UniProt C4YTQ8); test: steroid-induced GRE reporter decrease in yeast – S. cerevisiae, luminescence, Hsp90 inhibitor project, dose response (AID 2400); assay type: functional, cell-based;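 further: beta-galactosidase luminescence from glucocorticoid response element reporter as proxy for Hsp90 function; inhibitor potency where signal loss means Hsp90 inhibition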
cells [2] = assay type: functional
[3] = microbe, parasite or virus in culture; assay type: functional; conditions: Mycobacterium tuberculosis
[4] = HepG2 cell cytotoxicity, dose response, cytotoxicity control for non-replicating M. tuberculosis project (AID 489018); assay type: functional; conditions: Mycobacterium tuberculosis
[5] = fluconazole-exposed Candida albicans growth modulators – fluorescence, retest, confirmation (AID 2467); assay type: functional, cell-based
[6] = NIH-3T3 fibroblast cytotoxicity, dose response, cytotoxicity control, cell-based, fluorescence, Alamar Blue, secondary assay (AID 2327); assay type: functional;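 further: NIH-3T3 mouse fibroblasts cultured with fluconazole at 8 µg/mL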
[7] = biological target: T1, Serine/threonine-protein phosphatase (Candida dubliniensis (strain CD36 / CBS 7987 / NCPF 3949 / NRRLY-17841) (Yeast), UniProt B9W6M3); test: blockers of CaCl2-induced CDRE-lacZ signaling – S. cerevisiae, luminescence, secondary, dose response (AID 2388); assay type: functional, cell-based;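 further: yeast reporter cells carrying a calcineurin-responsive lacZ construct stimulated with calcium chloride; luminescent beta-galactosidase reporter signal in whole cells rather than isolated phosphatase activity; potency for inhibition where a drop in reporter signal means calcineurin blockade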
T1 sequence (B9W6M3 whole entry): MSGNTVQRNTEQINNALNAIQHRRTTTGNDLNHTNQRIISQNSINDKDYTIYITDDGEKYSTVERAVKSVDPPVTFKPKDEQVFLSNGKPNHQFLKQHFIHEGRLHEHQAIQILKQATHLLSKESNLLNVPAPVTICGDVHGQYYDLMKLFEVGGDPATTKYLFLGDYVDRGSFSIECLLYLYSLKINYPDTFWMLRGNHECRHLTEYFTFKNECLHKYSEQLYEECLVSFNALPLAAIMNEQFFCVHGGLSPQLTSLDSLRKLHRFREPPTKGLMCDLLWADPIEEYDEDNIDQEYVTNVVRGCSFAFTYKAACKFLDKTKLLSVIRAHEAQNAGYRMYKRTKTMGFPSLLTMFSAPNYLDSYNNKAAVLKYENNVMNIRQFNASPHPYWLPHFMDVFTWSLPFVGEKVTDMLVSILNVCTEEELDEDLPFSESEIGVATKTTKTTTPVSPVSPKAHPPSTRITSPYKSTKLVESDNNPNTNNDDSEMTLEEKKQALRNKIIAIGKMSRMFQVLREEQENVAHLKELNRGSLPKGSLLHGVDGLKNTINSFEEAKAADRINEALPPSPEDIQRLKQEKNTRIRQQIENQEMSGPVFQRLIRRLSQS

[8] = THP-1 cell cytotoxicity, dose response, cytotoxicity control for non-replicating M. tuberculosis project (AID 489025); assay type: functional
[9] = Vero E6 cell cytotoxicity, dose response, cytotoxicity control for non-replicating M. tuberculosis project, secondary assay (AID 492998); assay type: functional, VeroE6; conditions: Vero C1008
[10] = biological target: T2, Short transient receptor potential channel 4 (Mus musculus, UniProt Q9QUQ5); test: block of DAMGO-driven TRPC4 calcium entry – cell-based, HEK293 TRPC4/mu-opioid, Fluo-4 calcium, dose response (AID 434942); assay type: functional;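 further: potency of inhibitors blocking the TRPC4 calcium response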
T2 sequence (Q9QUQ5 whole entry): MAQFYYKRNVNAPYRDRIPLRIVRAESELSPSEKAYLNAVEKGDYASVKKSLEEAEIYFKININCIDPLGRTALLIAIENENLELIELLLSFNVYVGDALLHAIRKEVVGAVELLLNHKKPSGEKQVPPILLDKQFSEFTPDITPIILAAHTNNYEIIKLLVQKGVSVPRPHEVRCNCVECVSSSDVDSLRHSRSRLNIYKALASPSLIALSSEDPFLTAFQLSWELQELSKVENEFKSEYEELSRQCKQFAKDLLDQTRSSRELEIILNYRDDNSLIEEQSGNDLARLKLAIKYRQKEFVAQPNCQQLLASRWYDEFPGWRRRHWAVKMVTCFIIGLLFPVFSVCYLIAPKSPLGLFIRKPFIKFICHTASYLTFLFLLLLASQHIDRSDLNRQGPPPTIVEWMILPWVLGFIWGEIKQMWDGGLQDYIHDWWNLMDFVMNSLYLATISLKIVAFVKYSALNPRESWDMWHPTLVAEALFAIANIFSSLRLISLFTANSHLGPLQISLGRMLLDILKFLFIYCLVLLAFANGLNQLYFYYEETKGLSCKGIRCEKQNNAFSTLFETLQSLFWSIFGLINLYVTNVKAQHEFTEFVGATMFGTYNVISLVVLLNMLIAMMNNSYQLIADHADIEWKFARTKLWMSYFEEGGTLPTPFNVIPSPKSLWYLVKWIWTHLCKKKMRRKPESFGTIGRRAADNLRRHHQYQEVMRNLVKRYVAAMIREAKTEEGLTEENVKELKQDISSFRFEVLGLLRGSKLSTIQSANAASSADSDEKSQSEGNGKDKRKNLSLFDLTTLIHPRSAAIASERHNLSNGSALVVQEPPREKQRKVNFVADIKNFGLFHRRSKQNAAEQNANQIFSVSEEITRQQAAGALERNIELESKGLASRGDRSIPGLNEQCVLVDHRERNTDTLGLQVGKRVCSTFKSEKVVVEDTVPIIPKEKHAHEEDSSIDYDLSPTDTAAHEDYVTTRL

[11] = reduction of Shn3 3'UTR-driven luciferase in osteoblasts – cell-based, Clone20 osteoblasts, firefly luciferase, cherry-picked, dose response (AID 624132); assay type: functional;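 further: firefly luciferase luminescence from reporter carrying the Shn3 3'UTR in osteoblasts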
[12] = NIH3T3 cell viability loss – ATP luminescence, mouse fibroblasts, counter-screen, dose response (AID 2010); assay type: functional, cell-based;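 further: cells exposed to compound for about 90 hours before reading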
[13] = loss of viability in HepG2 cells – cell-based, CellTiter-Glo, cherry-picked, cytotoxicity control for Shn3 inhibitor project, dose response (AID 624134); assay type: functional
Streptokinase A = biological target: T3, Streptokinase A (Streptococcus pyogenes serotype M1, UniProt P10520); test: viability-normalized secreted streptokinase activity reduction – plasminogen activation absorbance, OD405, dose response (AID 1914); assay type: functional, Streptococcus pyogenes M1 GAS;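 further: secreted streptokinase activity via plasminogen activation per viability signal from cell pellet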
T3 sequence (P10520 whole entry): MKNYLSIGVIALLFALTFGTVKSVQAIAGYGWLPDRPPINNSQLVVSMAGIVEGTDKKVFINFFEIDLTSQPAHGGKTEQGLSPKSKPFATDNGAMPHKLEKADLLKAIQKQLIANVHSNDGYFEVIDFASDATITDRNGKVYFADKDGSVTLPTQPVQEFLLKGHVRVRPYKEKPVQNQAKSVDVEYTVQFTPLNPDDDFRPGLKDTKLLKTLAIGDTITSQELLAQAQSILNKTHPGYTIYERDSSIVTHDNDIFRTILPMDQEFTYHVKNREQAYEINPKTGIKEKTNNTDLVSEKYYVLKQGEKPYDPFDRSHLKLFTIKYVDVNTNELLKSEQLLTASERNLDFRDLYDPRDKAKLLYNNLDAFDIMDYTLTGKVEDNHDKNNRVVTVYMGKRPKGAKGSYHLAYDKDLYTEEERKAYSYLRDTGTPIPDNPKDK

[14] = biological target: Heat shock protein HSP 90-alpha (Homo sapiens, UniProt P07900); assay type: functional, organism-based
[15] = alpha-synuclein stem-loop luciferase translation blockers – H4 neuroglioma cells, luminescence, confirmation (AID 1988); assay type: functional, cell-based
cells [16] = assay type: functional, cell-based
INS1 = test: INS-1E survival protection against cytokine death – cell-based, luminescence, retest, dose response (AID 449756); assay type: functional; conditions: Rattus norvegicus;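 further: cell death triggered by IL-1 beta plus TNF-alpha plus IFN-gamma mixture; protective hits raise ATP signal compared with cytokine alone wells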
[17] = non-specific 3'UTR reporter inhibition in Clone20-Shn3RL – cell-based, Renilla luciferase, cherry-picked, counter-screen for Shn3 inhibitor project, dose response (AID 624133); assay type: functional
[18] = test system: Streptococcus sp. 'group A'; test: Streptococcus pyogenes SK(-)GAS viability under kanamycin – luminescence, BacTiterGlo, confirmation, counter-screen for streptokinase expression inhibitor project, dose response (AID 1900); assay type: functional, organism-based
Streptococcus = test: GAS UMAA2166 growth inhibition – luminescence, BacTiterGlo, counter-screen for streptokinase expression inhibitor project, dose response (AID 1915); assay type: functional, organism-based;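 further: potency for reduction of bacterial viability or growth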
[19] = Luminescence Cell-Based Dose Response HTS to Identify Inhibitors of 5'UTR Stem-Loop Driven Prion Protein mRNA Translation in H4 Neuroglioblastoma Cells. [Related pubchem assays: 1827 (Project Summary), 1813 (Primary HTS)]; assay type: functional
cells [20] = assay type: functional, cell-based; remark: listed apart in the source
[21] = Trypanosoma cruzi growth suppression in host cells – NIH3T3 host cells, beta-gal luminescence, confirmation (AID 2044); assay type: functional, cell-based;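 further: intracellular parasites grown in NIH/3T3 mouse fibroblasts as host cells; luminescent beta-galactosidase reporter signal from transgenic T. cruzi replicating inside host cells; inhibitors lower the luminescence signal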
[22] = luciferase reporter signal suppression in cells – H4 neuroglioma cells, luminescence, dose response (AID 1990); assay type: functional, cell-based
[23] = biological target: cAMP-dependent protein kinase catalytic subunit alpha (Homo sapiens, UniProt P17612); assay type: functional
[24] = biological target: Serine/threonine-protein kinase pim-1 (Homo sapiens, UniProt P11309); assay type: functional
[25] = biological target: Mitogen-activated protein kinase kinase kinase kinase 4 (Homo sapiens, UniProt O95819); assay type: functional
[26] = biological target: T4, Interleukin-1 receptor-associated kinase 4 (Homo sapiens, UniProt Q9NWZ3); assay type: functional
T4 sequence (Q9NWZ3 whole entry): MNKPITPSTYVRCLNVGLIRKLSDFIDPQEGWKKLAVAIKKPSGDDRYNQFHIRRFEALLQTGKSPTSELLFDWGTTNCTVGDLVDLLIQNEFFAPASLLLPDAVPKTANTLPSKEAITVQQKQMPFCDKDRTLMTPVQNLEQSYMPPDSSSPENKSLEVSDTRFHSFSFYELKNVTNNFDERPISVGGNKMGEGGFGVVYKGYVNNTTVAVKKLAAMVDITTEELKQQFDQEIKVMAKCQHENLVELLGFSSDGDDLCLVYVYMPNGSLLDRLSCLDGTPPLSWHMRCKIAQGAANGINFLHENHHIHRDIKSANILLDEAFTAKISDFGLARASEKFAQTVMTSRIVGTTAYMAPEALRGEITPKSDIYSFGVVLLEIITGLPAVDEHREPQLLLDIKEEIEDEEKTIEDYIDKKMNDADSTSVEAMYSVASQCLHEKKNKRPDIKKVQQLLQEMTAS

[27] = biological target: Glycogen synthase kinase-3 beta (Homo sapiens, UniProt P49841); assay type: functional;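 further: value comes from a broad kinome profiling panel, with GSK3B as the panel member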
[28] = biological target: Dual specificity protein kinase CLK4 (Homo sapiens, UniProt Q9HAZ1); assay type: functional
[29] = biological target: Cell division cycle 7-related protein kinase (Homo sapiens, UniProt O00311); assay type: functional;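 further: value obtained from a kinome-wide kinase panel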
[30] = biological target: Homeodomain-interacting protein kinase 2 (Homo sapiens, UniProt Q9H2X6); assay type: functional;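 further: measured within a kinome-wide kinase profiling panel, HIPK2 being one panel member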
Sequence of Homeodomain-interacting protein kinase 2 (Q9H2X6 whole entry): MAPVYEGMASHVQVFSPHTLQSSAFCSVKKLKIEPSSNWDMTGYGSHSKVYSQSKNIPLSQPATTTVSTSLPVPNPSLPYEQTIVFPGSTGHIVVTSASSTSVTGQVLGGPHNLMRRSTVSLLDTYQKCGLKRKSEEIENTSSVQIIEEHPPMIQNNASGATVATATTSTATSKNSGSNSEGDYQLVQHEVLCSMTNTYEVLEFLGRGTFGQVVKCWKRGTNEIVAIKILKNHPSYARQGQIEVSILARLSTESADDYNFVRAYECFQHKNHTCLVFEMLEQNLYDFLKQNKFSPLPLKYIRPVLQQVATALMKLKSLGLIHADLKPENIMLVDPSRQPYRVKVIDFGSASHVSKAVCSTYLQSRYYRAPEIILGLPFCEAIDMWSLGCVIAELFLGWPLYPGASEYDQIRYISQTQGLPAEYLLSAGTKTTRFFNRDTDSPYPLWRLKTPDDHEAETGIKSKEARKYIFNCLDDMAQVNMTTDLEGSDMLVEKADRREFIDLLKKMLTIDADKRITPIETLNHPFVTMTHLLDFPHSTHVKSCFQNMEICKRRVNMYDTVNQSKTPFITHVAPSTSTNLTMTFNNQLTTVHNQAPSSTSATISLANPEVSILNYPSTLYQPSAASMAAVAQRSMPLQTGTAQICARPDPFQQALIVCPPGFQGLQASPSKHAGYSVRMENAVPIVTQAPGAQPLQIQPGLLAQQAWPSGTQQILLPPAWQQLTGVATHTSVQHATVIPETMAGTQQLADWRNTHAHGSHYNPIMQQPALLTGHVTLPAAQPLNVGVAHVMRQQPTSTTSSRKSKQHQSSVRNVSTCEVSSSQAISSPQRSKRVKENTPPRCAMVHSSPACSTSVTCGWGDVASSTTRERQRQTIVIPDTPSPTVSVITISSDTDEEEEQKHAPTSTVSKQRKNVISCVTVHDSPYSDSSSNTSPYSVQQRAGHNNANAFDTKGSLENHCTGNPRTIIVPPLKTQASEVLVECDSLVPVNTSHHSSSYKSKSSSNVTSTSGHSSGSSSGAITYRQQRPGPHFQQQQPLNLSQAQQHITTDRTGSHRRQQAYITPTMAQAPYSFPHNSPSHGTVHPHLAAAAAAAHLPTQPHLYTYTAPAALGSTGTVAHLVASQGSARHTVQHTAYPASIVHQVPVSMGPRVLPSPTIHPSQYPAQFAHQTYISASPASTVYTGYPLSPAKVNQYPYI

Sequence of Dual specificity protein kinase CLK4 (Q9HAZ1 whole entry): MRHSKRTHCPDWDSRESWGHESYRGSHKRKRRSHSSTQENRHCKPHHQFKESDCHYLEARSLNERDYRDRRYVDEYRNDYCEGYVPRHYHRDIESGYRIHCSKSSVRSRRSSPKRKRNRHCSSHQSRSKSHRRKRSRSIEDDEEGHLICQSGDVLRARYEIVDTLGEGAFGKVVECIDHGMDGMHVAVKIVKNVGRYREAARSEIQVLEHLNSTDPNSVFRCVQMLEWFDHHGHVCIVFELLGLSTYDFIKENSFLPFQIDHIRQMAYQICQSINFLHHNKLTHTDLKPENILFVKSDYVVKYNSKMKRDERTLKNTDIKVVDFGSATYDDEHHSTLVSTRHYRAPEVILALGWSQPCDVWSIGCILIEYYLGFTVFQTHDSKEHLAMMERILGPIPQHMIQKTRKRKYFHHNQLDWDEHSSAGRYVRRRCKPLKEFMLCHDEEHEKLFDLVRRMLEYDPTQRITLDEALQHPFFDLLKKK
Sequence of Glycogen synthase kinase-3 beta (P49841 whole entry): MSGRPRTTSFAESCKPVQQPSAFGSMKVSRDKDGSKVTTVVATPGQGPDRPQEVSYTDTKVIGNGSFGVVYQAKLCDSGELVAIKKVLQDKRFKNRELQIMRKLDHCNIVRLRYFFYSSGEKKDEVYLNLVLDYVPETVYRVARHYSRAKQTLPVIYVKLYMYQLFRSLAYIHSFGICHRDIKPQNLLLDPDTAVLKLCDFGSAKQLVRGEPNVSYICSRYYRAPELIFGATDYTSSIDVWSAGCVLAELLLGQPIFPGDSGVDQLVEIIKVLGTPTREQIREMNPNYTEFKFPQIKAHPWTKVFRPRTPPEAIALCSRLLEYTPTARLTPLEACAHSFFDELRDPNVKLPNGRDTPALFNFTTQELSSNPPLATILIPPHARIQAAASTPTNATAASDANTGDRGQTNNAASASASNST
Sequence of ATP-dependent molecular chaperone HSP82 (C4YTQ8 whole entry): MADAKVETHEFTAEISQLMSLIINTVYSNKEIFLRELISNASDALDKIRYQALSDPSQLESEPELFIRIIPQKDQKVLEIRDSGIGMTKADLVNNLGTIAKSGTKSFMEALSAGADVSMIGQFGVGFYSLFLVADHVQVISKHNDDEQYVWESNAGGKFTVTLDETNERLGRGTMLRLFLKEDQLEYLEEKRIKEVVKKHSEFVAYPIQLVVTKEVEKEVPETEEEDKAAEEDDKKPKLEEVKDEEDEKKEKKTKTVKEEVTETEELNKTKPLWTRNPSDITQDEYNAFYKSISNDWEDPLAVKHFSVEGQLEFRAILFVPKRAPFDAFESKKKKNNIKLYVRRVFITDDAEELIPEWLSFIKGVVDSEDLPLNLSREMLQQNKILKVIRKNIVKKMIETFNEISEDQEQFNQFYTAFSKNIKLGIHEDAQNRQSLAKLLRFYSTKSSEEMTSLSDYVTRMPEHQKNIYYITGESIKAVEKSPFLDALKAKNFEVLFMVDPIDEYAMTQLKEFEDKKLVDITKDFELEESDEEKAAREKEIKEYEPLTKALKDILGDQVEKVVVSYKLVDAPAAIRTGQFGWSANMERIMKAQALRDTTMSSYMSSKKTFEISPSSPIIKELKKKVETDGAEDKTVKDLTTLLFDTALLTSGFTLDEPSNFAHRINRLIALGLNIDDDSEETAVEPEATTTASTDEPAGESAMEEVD
Sequence of Cell division cycle 7-related protein kinase (O00311 whole entry): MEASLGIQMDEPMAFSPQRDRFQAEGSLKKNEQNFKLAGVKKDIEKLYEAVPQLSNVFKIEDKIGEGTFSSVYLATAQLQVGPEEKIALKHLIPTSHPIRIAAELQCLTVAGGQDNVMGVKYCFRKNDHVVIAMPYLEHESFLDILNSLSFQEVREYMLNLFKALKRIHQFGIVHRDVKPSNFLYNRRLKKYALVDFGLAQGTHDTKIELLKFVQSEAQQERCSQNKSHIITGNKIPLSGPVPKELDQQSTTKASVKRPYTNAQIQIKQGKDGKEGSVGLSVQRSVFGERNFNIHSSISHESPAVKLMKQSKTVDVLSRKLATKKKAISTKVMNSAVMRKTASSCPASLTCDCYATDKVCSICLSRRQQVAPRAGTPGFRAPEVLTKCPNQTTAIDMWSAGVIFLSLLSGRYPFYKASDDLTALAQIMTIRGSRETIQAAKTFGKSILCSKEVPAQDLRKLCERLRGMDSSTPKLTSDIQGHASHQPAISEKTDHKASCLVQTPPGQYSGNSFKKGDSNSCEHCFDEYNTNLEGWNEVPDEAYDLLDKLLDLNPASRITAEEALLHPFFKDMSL
Sequence of Serine/threonine-protein kinase pim-1 (P11309 whole entry): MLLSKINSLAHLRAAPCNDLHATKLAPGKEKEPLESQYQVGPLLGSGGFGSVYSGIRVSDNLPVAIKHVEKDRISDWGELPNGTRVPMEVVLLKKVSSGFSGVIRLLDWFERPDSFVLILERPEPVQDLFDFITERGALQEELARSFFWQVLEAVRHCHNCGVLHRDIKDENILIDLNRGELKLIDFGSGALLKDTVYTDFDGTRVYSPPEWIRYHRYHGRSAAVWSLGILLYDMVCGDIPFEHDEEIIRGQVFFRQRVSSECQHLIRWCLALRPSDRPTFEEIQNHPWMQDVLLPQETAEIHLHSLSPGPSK
Sequence of Mitogen-activated protein kinase kinase kinase kinase 4 (O95819 whole entry): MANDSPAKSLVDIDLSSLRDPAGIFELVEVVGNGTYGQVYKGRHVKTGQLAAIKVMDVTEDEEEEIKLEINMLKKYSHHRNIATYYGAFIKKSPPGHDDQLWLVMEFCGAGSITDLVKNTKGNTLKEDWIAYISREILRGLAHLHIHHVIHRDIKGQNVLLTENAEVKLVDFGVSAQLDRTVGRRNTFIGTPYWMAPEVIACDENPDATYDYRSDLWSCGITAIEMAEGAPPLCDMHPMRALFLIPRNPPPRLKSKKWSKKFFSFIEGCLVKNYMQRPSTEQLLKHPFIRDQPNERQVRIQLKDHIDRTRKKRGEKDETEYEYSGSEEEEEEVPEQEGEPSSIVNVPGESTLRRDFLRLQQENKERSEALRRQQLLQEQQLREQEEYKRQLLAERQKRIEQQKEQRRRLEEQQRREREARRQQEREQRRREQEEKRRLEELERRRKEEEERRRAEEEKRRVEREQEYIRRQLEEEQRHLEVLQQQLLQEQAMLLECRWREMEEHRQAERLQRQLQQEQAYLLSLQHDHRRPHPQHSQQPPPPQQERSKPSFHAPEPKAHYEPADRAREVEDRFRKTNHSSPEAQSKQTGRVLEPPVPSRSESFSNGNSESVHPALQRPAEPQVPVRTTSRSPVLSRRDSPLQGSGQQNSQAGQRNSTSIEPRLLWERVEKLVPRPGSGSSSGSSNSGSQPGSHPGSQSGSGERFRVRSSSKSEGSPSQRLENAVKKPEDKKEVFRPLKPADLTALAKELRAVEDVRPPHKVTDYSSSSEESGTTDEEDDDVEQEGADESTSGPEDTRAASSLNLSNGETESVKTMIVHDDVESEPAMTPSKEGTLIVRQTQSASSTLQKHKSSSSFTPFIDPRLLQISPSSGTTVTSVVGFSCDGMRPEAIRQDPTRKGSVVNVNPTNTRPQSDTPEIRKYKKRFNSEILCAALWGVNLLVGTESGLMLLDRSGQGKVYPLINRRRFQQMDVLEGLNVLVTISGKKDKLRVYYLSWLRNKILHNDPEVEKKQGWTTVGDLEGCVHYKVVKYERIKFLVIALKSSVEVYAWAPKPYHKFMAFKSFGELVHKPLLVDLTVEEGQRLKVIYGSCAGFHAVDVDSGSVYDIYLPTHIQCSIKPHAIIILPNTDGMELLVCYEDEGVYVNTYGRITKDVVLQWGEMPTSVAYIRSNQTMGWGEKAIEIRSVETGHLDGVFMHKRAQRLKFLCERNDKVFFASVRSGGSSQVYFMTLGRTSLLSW

SMILES	EC50 [1]	EC50 [5]	EC50 [6]	EC50 [7]	Ki [23]	Ki [24]	Ki [26]	Ki [27]	Ki [28]	Ki [29]	Ki [30]	other results
O=c1c2ccc(Cl)cc2nc(-c2ccc([N+](=O)[O-])cc2)n1O	44.6 µM (active)	430 nM (active)	99.4 µM (active)	> 180 µM (inactive)	–	–	–	–	–	–	–	IC50 (cells [2]): 8.17 µM (active); CC50 [3]: 21.4 µM (active); CC50 [4]: 16.8 µM (active); CC50 [8]: 11.8 µM (active); CC50 [9]: 12.1 µM (active)
CCOc1ccc(-c2ccc(NS(=O)(=O)c3ccc([N+](=O)[O-])cc3)cc2)nn1	> 150 µM (inactive)	2360 nM (active)	50.7 µM (active)	> 180 µM (inactive)	–	–	–	–	–	–	–	–
CCCCCCCNC(=O)COc1ccc2c(c1)C(=O)CC(C)(C)O2	> 160 µM (inactive)	2280 nM (active)	> 160 µM (inactive)	> 180 µM (inactive)	–	–	–	–	–	–	–	EC50 [10]: 944 nM (active)
Oc1c(CN2CCN(c3ccc(F)cc3)CC2)cc(Cl)c2cccnc12	> 160 µM (inactive)	693 nM (active)	26.1 µM (active)	> 180 µM (inactive)	–	–	–	–	–	–	–	AC50 [11]: 1.32 µM (active); EC50 [12]: 8.2 µM (active); AC50 [13]: > 70 µM (inactive); EC50 (Streptokinase A): > 150 µM (not active); AC50 [14]: 7.92 µM (active); EC50 [15]: 192 nM (active); EC50 (cells [16]): > 350 µM (not active); AC50 (INS1): 1.27 µM (active); AC50 [17]: 534 nM (active); EC50 [18]: 1.56 µM (active); EC50 (Streptococcus): 10.8 µM (active); EC50 [19]: 157 nM (active); EC50 (cells [20]): 69.4 µM (active); EC50 [21]: 465 nM (active); EC50 [22]: 200 nM (active)
Cc1cc(Br)ccc1OCC(=O)NNC(=O)C(=O)Nc1ccccc1	> 150 µM (inactive)	526 nM (active)	> 150 µM (inactive)	> 180 µM (inactive)	–	–	–	–	–	–	–	IC50 (cells [2]): 12.2 µM (active)
Fc1cccc(-c2c[nH]c3ncccc23)c1	–	–	–	–	2.51 µM (active)	7.94 µM (active)	2510 nM (active)	2000 nM (active)	39.8 nM (active)	63.1 nM (active)	1000 nM (active)	Ki [25]: 3.16 nM (active)
C=CCNc1cc(-c2c[nH]c3ncccc23)cc(Cl)n1	–	–	–	–	0.398 µM (active)	0.794 µM (active)	631 nM (active)	100 nM (active)	3.98 nM (active)	0.794 nM (active)	50.1 nM (active)	–
CCCCOc1cc(-c2ccncc2)cc2[nH]nc(N)c12	–	–	–	–	1.26 µM (active)	1.58 µM (active)	631 nM (active)	631 nM (active)	10 nM (active)	15.8 nM (active)	794 nM (active)	Ki [25]: 251 nM (active)
